Results from ChEMBL document CHEMBL1150194, “Two new brominated tyrosine derivatives from the sponge Druinella (= Psammaplysilla) purpurea” (J Nat Prod, 1991).
Calls of active or inactive are those of the source. The rule behind the calls is not given here.

What was measured:
[1] = tested on: Staphylococcus aureus; assay: Antimicrobial activity against Staphylococcus aureus at 100 ug/disk; format: functional, organism-based
[2] = tested on: Bacillus subtilis; assay: Antimicrobial activity against Bacillus subtilis at 100 ug/disk; format: functional, organism-based

SMILES	Activity [1]	Activity [2]
COc1c(Br)cc(C/C(=N\O)C(=O)NCCCOc2ccc(CCN)cc2Br)cc1Br	Active	Active
COC1=C(Br)[C@H](O)[C@@]2(C=C1Br)CC(C(=O)NCCCOc1ccc(CCN)cc1Br)=NO2	Active	Active
